In ChEMBL document CHEMBL5230113, “2-substituted benzothiazoles as antiproliferative agents: Novel insights on structure-activity relationships” (Eur J Med Chem, 2020):
In brackets after ≈: the same amount, converted by molar mass. Blank lines part the entries; values can stand above or below the compound they belong to.

Assays:
[1] = test system: HCC4017; test: Cytotoxicity against human HCC4017 cells assessed as cell growth inhibition; format: functional, cell-based
[2] = Cytotoxicity against human HCC4018 cells assessed as cell growth inhibition; format: functional, cell-based
[3] = target: Histone deacetylase 1 (Homo sapiens, UniProt Q13547); test: Inhibition of HDAC1 (unknown origin)
[4] = test system: HepG2; test: Cytotoxicity against human HepG2 cells assessed as inhibition of cell growth; format: functional, cell-based
[5] = test system: C6; test: Cytotoxicity against rat C6 cells assessed as inhibition of cell growth; format: functional, cell-based
[6] = test system: HeLa; test: Antiproliferative activity against human HeLa cells assessed as cell growth inhibition; format: functional, cell-based
[7] = test system: MDA-MB-231; test: Cytotoxicity against human MDA-MB-231 cells assessed as cell growth inhibition; format: functional, cell-based
[8] = test system: A549; test: Antiproliferative activity against human A549 cells assessed as cell growth inhibition; format: functional, cell-based
[9] = test system: MCF7; test: Cytotoxicity against human MCF7 cells assessed as inhibition of cell growth; format: functional, cell-based
[10] = test system: DU-145; test: Cytotoxicity against human DU-145 cells assessed as cell growth inhibition; format: functional
[11] = test system: MV4-11; test: Antiproliferative activity against human MV4-11 cells assessed as cell growth inhibition; format: functional, cell-based
[12] = test system: DB; test: Antiproliferative activity against human DB cells assessed as cell growth inhibition; format: functional, cell-based
[13] = target: T1, Prostaglandin G/H synthase 2 (Homo sapiens, UniProt P35354); test: Inhibition of COX-2 (unknown origin)
T1 sequence (P35354 whole entry): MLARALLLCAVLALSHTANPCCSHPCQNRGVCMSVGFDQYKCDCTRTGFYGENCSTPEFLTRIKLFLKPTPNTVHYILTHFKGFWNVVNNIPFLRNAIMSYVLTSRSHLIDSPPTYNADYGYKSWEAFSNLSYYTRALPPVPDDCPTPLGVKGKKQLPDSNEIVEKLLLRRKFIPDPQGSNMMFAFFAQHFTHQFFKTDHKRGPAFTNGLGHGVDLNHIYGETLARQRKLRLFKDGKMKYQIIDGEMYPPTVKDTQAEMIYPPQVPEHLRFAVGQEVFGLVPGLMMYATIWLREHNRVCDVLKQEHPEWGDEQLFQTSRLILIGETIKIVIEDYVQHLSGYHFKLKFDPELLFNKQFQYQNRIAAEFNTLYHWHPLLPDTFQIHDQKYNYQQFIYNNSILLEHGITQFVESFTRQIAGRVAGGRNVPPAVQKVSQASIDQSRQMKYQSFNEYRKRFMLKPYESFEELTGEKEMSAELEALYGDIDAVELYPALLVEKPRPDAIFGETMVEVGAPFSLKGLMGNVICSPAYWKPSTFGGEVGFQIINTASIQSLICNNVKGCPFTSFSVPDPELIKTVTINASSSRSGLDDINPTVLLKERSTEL

[14] = target: Prostaglandin G/H synthase 1 (Homo sapiens, UniProt P23219); test: Inhibition of COX-1 (unknown origin)
[15] = test system: SiHa; test: Antiproliferative activity against human SiHa cells assessed as cell growth inhibition; format: functional, cell-based
[16] = test system: MKN-45; test: Antiproliferative activity against human MKN-45 cells assessed as inhibition of cell growth; format: functional, cell-based
[17] = test system: NCI-H226; test: Antiproliferative activity against human NCI-H226 cells assessed as inhibition of cell growth; format: functional, cell-based
[18] = test system: SK-N-SH; test: Antiproliferative activity against human SK-N-SH cells assessed as inhibition of cell growth; format: functional, cell-based
[19] = Activation of procaspase-3 (unknown origin); parameters: species or system Homo sapiens
[20] = test system: HT-29; test: Antiproliferative activity against human HT-29 cells assessed as inhibition of cell growth; format: functional, cell-based
[21] = test system: MDA-MB-231; test: Potency index, ratio of PAC-1 IC50 to test compound IC50 for antiproliferative activity against human MDA-MB-231 cells assessed as inhibition of cell growth; format: functional; conditions: pooled result: one value given for 5 cell lines, strains, targets or settings

Chain of Prostaglandin G/H synthase 1 (P23219 whole entry): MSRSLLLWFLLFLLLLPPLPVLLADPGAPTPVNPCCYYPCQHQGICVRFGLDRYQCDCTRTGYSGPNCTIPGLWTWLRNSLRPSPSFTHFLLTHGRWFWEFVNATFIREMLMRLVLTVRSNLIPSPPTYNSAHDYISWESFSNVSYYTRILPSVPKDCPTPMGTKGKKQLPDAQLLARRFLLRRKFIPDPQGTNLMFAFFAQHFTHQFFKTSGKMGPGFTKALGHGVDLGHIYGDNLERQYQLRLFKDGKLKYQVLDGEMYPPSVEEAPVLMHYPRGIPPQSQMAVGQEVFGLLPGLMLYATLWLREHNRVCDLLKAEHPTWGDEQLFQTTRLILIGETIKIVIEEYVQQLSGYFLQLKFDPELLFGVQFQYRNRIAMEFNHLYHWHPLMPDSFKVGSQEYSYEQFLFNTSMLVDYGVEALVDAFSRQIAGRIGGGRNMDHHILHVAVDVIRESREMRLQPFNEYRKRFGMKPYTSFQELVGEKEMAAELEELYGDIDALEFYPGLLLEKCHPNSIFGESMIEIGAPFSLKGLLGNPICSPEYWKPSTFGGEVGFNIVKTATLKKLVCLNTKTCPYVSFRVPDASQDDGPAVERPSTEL
Chain of Histone deacetylase 1 (Q13547 whole entry): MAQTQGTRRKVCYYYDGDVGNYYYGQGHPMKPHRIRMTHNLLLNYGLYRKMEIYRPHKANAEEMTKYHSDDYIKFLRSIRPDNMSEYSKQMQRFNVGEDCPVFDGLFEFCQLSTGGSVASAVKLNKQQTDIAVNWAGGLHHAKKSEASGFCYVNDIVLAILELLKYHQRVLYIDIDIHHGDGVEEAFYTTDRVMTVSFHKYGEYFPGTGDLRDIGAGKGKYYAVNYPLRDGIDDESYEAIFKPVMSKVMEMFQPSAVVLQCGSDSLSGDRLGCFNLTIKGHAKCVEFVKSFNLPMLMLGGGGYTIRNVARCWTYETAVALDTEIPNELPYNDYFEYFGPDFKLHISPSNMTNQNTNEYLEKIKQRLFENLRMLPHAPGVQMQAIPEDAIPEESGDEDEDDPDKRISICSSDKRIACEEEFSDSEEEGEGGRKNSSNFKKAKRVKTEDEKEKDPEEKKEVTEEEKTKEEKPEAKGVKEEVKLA

Structure (SMILES): Cc1ccc(Nn2c(SCC(=O)Nc3nc4ccc(F)cc4s3)nc(C)c2C)cc1
IC50 ([4]; hepg2): 31.7 µg/mL | IC50 [5]: 16.3 µg/mL (≈ 37 µM)

Structure (SMILES): Cc1ccc(Nn2c(SCC(=O)Nc3nc4ccc(C)cc4s3)nc(C)c2C)cc1
IC50 ([4]; hepg2): 26.3 µg/mL

Structure (SMILES): Cc1ccc2nc(N/N=C/c3cccnc3Nc3ccccc3)sc2c1
IC50 [9]: 1690 nM

Structure (SMILES): Cc1ccc2nc(NC(=O)CSc3nc(C)c(C)n3Nc3ccc([N+](=O)[O-])cc3)sc2c1
IC50 [5]: 15.7 µg/mL (≈ 33.4 µM)

Structure (SMILES): O=C(CNS(=O)(=O)c1cc(Cl)ccc1Cl)N1CCN(c2nc3ccccc3s2)CC1
CC50 ([4]; Homo sapiens, HepG2): 8000 nM | CC50 [10]: 9000 nM

Structure (SMILES): COc1ccc(Cl)cc1C(=O)Nc1ccc(-c2nc3ccccc3s2)cc1
IC50 [15]: 6130 nM

Structure (SMILES): Cc1ccc(Nn2c(SCC(=O)Nc3nc4ccc(Cl)cc4s3)nc(C)c2C)cc1
IC50 ([4]; hepg2): 29.3 µg/mL

Structure (SMILES): Cc1nc(SCC(=O)Nc2nc3ccc(F)cc3s2)n(Nc2ccc([N+](=O)[O-])cc2)c1C
IC50 ([4]; hepg2): > 500 µg/mL

Structure (SMILES): Cc1nc(SCC(=O)Nc2nc3ccccc3s2)n(Nc2ccc([N+](=O)[O-])cc2)c1C
IC50 ([4]; hepg2): 28.7 µg/mL | IC50 [5]: 24.3 µg/mL (≈ 53.5 µM)

Structure (SMILES): O=C(CNS(=O)(=O)c1ccc(Cl)cc1)N1CCN(c2nc3ccccc3s2)CC1
CC50 [10]: 8000 nM

Structure (SMILES): Nc1ccc(-c2nc3ccccc3s2)cc1
IC50 [9]: 0.3 nM

Second part, led by results:

IC50 [3]: 4800 nM
Structure (SMILES): O=C(NO)c1ccc(S(=O)(=O)N2CCN(c3nc4ccccc4s3)CC2)cc1
IC50 [1]: 1630 nM | IC50 [2]: 4000 nM

GI50 [6]: 200 nM | GI50 [8]: 200 nM
Structure (SMILES): O=C(CN1CCN(c2ccccc2F)CC1)Nc1ccc(-c2nc3ccccc3s2)cc1
GI50 [7]: 200 nM

GI50 [6]: 200 nM | GI50 [8]: 200 nM
Structure (SMILES): O=C(CN1CCN(c2ccccc2)CC1)Nc1ccc(-c2nc3ccccc3s2)cc1
GI50 [7]: 200 nM

IC50 [6]: 15000 nM | IC50 [11]: 7510 nM | IC50 [8]: 5420 nM
Structure (SMILES): O=C(Nc1cccc(-c2nc3ccccc3s2)c1)c1cccnc1
IC50 ([4]; Homo sapiens, HepG2, read-out: IC50): 15000 nM | IC50 [12]: 15000 nM | IC50 [9]: 15000 nM

IC50 [13]: 100 nM | IC50 [14]: 9560 nM | IC50 [8]: 12300 nM
Structure (SMILES): CC(=O)N1N=C(C)/C(=N\Nc2cccc(-c3nc4ccccc4s3)c2)C1=O
IC50 [9]: 12300 nM

GI50 [6]: 200 nM | GI50 [8]: 200 nM
Structure (SMILES): COc1cccc(-n2cc(CNc3ccc(-c4nc5ccccc5s4)cc3)nn2)c1
GI50 [7]: 200 nM

GI50 [6]: 200 nM | GI50 [8]: 200 nM
Structure (SMILES): Clc1cccc(-n2cc(CNc3ccc(-c4nc5ccccc5s4)cc3)nn2)c1
GI50 [7]: 200 nM

IC50 [13]: 100 nM | IC50 [14]: 9560 nM | IC50 [8]: 12300 nM
Structure (SMILES): CC1=NN(c2ccccc2)C(=O)/C1=N/Nc1cccc(-c2nc3ccccc3s2)c1
IC50 [9]: 12300 nM

IC50 [16]: 240 nM | IC50 [17]: 240 nM | IC50 [18]: 240 nM | EC50 [19]: 310 nM | IC50 [20]: 240 nM
Structure (SMILES): CN(C)Cc1ccc2nc(NC(=O)N/N=C/c3ccc(OCc4ccc(C(F)(F)F)cc4)cc3O)sc2c1
IC50 [7]: 240 nM | Ratio IC50 [21]: 4.24

GI50 [6]: 200 nM | GI50 [8]: 200 nM
Structure (SMILES): Cc1ccc(N2CCN(CC(=O)Nc3ccc(-c4nc5ccccc5s4)cc3)CC2)cc1
GI50 [7]: 200 nM

EC50 [19]: 410 nM
Structure (SMILES): C=CCc1cccc(/C=N/NC(=O)CN2CCN(Cc3ccccc3)CC2)c1O [PAC-1]
